The supplement of paper PMC10307832

What was measured:
Experiment in all cases: relative viability (nuclei count vs DMSO), 5 days (fraction); higher = more cells survive
SW 1573 = system: SW 1573
Summary of the method: (§1)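 Dosing by pin tool came one day after lung cancer cell lines were seeded in 1536-well plates, using either one drug or a fixed anchor-drug dose plus five library-drug doses (not always all listed) in √10 steps. After 5 days, nuclei were counted on 4× images. Relative viability is treated-well nuclei count divided by vehicle-well nuclei count, and values are medians of duplicate plates.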

NCI-H1755 = system: NCI-H1755
Summary of the method: as §1

A-427 = system: A-427
Summary of the method: as §1

NCI-H1792 = system: NCI-H1792
Summary of the method: as §1

NCI-H1915 = system: NCI-H1915
Summary of the method: as §1

NCI-H1355 = system: NCI-H1355
Summary of the method: as §1

NCI-H727 = system: NCI-H727
Summary of the method: as §1

NCI-H2228 = system: NCI-H2228
Summary of the method: as §1

HCC-827 = system: HCC-827
Summary of the method: as §1

SK-LU-1 = system: SK-LU-1
Summary of the method: as §1

NCI-H23 = system: NCI-H23
Summary of the method: as §1

NCI-H1395 = system: NCI-H1395
Summary of the method: as §1

HARA = system: HARA
Summary of the method: as §1

NCI-H2009 = system: NCI-H2009
Summary of the method: as §1

COR-L 105 = system: COR-L 105
Summary of the method: as §1

CAL-12T = system: CAL-12T
Summary of the method: as §1

NCI-H1437 = system: NCI-H1437
Summary of the method: as §1

LCLC-103H = system: LCLC-103H
Summary of the method: as §1

NCI-H460 = system: NCI-H460
Summary of the method: as §1

HOP-62 = system: HOP-62
Summary of the method: as §1

EMC-BAC-2 = system: EMC-BAC-2
Summary of the method: as §1

HCC-366 = system: HCC-366
Summary of the method: as §1

NCI-H1975 = system: NCI-H1975
Summary of the method: as §1

## COc1cc(N2CCC(C(N)=O)CC2)ccc1Nc1nc(N)c(Cl)c(Nc2ccccc2S(=O)(=O)C(C)C)n1 [HG-5-88-01] + Cc1nc(NC(=O)N2CCC[C@H]2C(N)=O)sc1-c1ccnc(C(C)(C)C(F)(F)F)c1 [Alpelisib] (partner 2 µM)
SW 1573; first compound 0.04 µM
  relative viability: 0.866
SW 1573; first compound 0.1265 µM
  relative viability: 0.571
SW 1573; first compound 0.4 µM
  relative viability: 0.866
SW 1573; first compound 1.265 µM
  relative viability: 0.632
SW 1573; first compound 4 µM
  relative viability: 0.605
NCI-H1755; first compound 0.1265 µM
  relative viability: 0.938
NCI-H1755; first compound 0.4 µM
  relative viability: 0.912
NCI-H1755; first compound 1.265 µM
  relative viability: 0.897
NCI-H1755; first compound 4 µM
  relative viability: 1.05
A-427; first compound 0.04 µM
  relative viability: 1.07
A-427; first compound 0.1265 µM
  relative viability: 1.12
A-427; first compound 0.4 µM
  relative viability: 1.16
A-427; first compound 1.265 µM
  relative viability: 1.12
A-427; first compound 4 µM
  relative viability: 0.959
NCI-H1792; first compound 0.04 µM
  relative viability: 0.874
NCI-H1792; first compound 0.1265 µM
  relative viability: 0.686
NCI-H1792; first compound 0.4 µM
  relative viability: 0.654
NCI-H1792; first compound 1.265 µM
  relative viability: 0.635
NCI-H1792; first compound 4 µM
  relative viability: 0.949
NCI-H1915; first compound 0.04 µM
  relative viability: 1.08
NCI-H1915; first compound 0.1265 µM
  relative viability: 1.03
NCI-H1915; first compound 0.4 µM
  relative viability: 1.12
NCI-H1915; first compound 1.265 µM
  relative viability: 1.04
NCI-H1915; first compound 4 µM
  relative viability: 0.958
NCI-H1355; first compound 0.04 µM
  relative viability: 0.881
NCI-H1355; first compound 0.1265 µM
  relative viability: 0.934
NCI-H1355; first compound 0.4 µM
  relative viability: 0.775
NCI-H1355; first compound 1.265 µM
  relative viability: 0.767
NCI-H1355; first compound 4 µM
  relative viability: 0.737
NCI-H727; first compound 0.04 µM
  relative viability: 0.517
NCI-H727; first compound 0.1265 µM
  relative viability: 0.512
NCI-H727; first compound 0.4 µM
  relative viability: 0.519
NCI-H727; first compound 1.265 µM
  relative viability: 0.329
NCI-H727; first compound 4 µM
  relative viability: 0.27
NCI-H2228; first compound 0.04 µM
  relative viability: 0.242
NCI-H2228; first compound 0.1265 µM
  relative viability: 0.297
NCI-H2228; first compound 0.4 µM
  relative viability: 0.324
NCI-H2228; first compound 1.265 µM
  relative viability: 0.224
NCI-H2228; first compound 4 µM
  relative viability: 0.476
HCC-827; first compound 0.04 µM
  relative viability: 1.04
HCC-827; first compound 0.1265 µM
  relative viability: 1.01
HCC-827; first compound 0.4 µM
  relative viability: 1.05
HCC-827; first compound 1.265 µM
  relative viability: 0.849
HCC-827; first compound 4 µM
  relative viability: 0.353
SK-LU-1; first compound 0.04 µM
  relative viability: 1.18
SK-LU-1; first compound 0.1265 µM
  relative viability: 0.988
SK-LU-1; first compound 0.4 µM
  relative viability: 0.895
SK-LU-1; first compound 1.265 µM
  relative viability: 0.966
SK-LU-1; first compound 4 µM
  relative viability: 0.797
NCI-H23; first compound 0.04 µM
  relative viability: 0.832
NCI-H23; first compound 0.1265 µM
  relative viability: 0.738
NCI-H23; first compound 0.4 µM
  relative viability: 0.67
NCI-H23; first compound 1.265 µM
  relative viability: 0.847
NCI-H23; first compound 4 µM
  relative viability: 0.496
NCI-H1395; first compound 0.04 µM
  relative viability: 1.09
NCI-H1395; first compound 0.1265 µM
  relative viability: 1.06
NCI-H1395; first compound 0.4 µM
  relative viability: 1.1
NCI-H1395; first compound 1.265 µM
  relative viability: 0.909
NCI-H1395; first compound 4 µM
  relative viability: 0.986
HARA; first compound 0.04 µM
  relative viability: 0.938
HARA; first compound 0.1265 µM
  relative viability: 0.777
HARA; first compound 0.4 µM
  relative viability: 0.742
HARA; first compound 1.265 µM
  relative viability: 0.779
HARA; first compound 4 µM
  relative viability: 0.799
NCI-H2009; first compound 0.04 µM
  relative viability: 1.13
NCI-H2009; first compound 0.1265 µM
  relative viability: 1.05
NCI-H2009; first compound 0.4 µM
  relative viability: 1.05
NCI-H2009; first compound 1.265 µM
  relative viability: 1.17
NCI-H2009; first compound 4 µM
  relative viability: 1.14
COR-L 105; first compound 0.04 µM
  relative viability: 0.955
COR-L 105; first compound 0.1265 µM
  relative viability: 1.1
COR-L 105; first compound 0.4 µM
  relative viability: 0.971
COR-L 105; first compound 1.265 µM
  relative viability: 0.606
COR-L 105; first compound 4 µM
  relative viability: 0.711
CAL-12T; first compound 0.04 µM
  relative viability: 1.11
CAL-12T; first compound 0.1265 µM
  relative viability: 1.3
CAL-12T; first compound 0.4 µM
  relative viability: 1.19
CAL-12T; first compound 1.265 µM
  relative viability: 1.12
CAL-12T; first compound 4 µM
  relative viability: 0.874
NCI-H1437; first compound 0.04 µM
  relative viability: 1.03
NCI-H1437; first compound 0.1265 µM
  relative viability: 1.09
NCI-H1437; first compound 0.4 µM
  relative viability: 0.873
NCI-H1437; first compound 1.265 µM
  relative viability: 0.964
NCI-H1437; first compound 4 µM
  relative viability: 1.02
LCLC-103H; first compound 0.04 µM
  relative viability: 0.938
LCLC-103H; first compound 0.1265 µM
  relative viability: 0.968
LCLC-103H; first compound 0.4 µM
  relative viability: 0.949
LCLC-103H; first compound 1.265 µM
  relative viability: 0.907
LCLC-103H; first compound 4 µM
  relative viability: 1.2
NCI-H460; first compound 0.04 µM
  relative viability: 0.466
NCI-H460; first compound 0.1265 µM
  relative viability: 0.461
NCI-H460; first compound 0.4 µM
  relative viability: 0.461
NCI-H460; first compound 1.265 µM
  relative viability: 0.335
NCI-H460; first compound 4 µM
  relative viability: 0.304
HOP-62; first compound 0.04 µM
  relative viability: 0.835
HOP-62; first compound 0.1265 µM
  relative viability: 0.924
HOP-62; first compound 0.4 µM
  relative viability: 0.999
HOP-62; first compound 1.265 µM
  relative viability: 0.981
HOP-62; first compound 4 µM
  relative viability: 1.41
EMC-BAC-2; first compound 0.04 µM
  relative viability: 0.729
EMC-BAC-2; first compound 0.1265 µM
  relative viability: 0.757
EMC-BAC-2; first compound 0.4 µM
  relative viability: 0.723
EMC-BAC-2; first compound 1.265 µM
  relative viability: 0.703
EMC-BAC-2; first compound 4 µM
  relative viability: 0.628
HCC-366; first compound 0.04 µM
  relative viability: 0.49
HCC-366; first compound 0.1265 µM
  relative viability: 0.382
HCC-366; first compound 0.4 µM
  relative viability: 0.309
HCC-366; first compound 1.265 µM
  relative viability: 0.418
HCC-366; first compound 4 µM
  relative viability: 0.327
NCI-H1975; first compound 0.04 µM
  relative viability: 0.597
NCI-H1975; first compound 0.1265 µM
  relative viability: 0.62
NCI-H1975; first compound 0.4 µM
  relative viability: 0.555
NCI-H1975; first compound 1.265 µM
  relative viability: 0.516
NCI-H1975; first compound 4 µM
  relative viability: 0.264
